US20240246964A1 (Arbutus Biopharma Corporation, priority 2021, published 2024)

Experiments:
[1] = biological target: PD-L1 His protein / PD-1 Fc protein (Homo sapiens (Human), UniProt Q9NZQ7); assay: HTRF Assay (PD-1/PD-L1 interaction); assay type: binding; conditions: PD-L1 His 6 nM, PD-1 Fc 6 nM
[2] = biological target: human PD-L1 (Homo sapiens (Human), UniProt Q9NZQ7); assay: T cell activation luciferase reporter cell culture system (T Cell Activation Assay); assay type: cell-based; conditions: luciferase reporter assay; PD-L1 aAPC/CHO-K1 cells with PD-1 effector Jurkat T cells
Sequence of human PD-L1 (Q9NZQ7 19-290): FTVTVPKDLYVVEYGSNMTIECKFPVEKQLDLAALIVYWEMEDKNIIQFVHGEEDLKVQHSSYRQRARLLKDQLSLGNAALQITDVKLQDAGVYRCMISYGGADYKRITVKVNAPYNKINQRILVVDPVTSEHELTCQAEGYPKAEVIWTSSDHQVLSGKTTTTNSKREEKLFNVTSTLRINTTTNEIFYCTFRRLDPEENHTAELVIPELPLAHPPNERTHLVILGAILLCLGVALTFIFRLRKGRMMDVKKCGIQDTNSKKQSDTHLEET

Sequence of PD-L1 His protein / PD-1 Fc protein (Q9NZQ7 19-238): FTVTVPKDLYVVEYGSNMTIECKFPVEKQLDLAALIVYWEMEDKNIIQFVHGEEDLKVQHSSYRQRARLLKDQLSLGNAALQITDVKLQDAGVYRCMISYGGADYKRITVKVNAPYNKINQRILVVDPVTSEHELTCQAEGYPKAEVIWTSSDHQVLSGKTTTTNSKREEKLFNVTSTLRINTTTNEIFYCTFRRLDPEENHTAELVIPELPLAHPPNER

Work on `COc1cc(-c2nccc(-c3cccc(-c4ccc(CN5CCC(NC(C)=O)CC5)c(OC)n4)c3Cl)c2Cl)ccc1CN1CC2(CNC(=O)C2)C1` [Example 355, N-(1-((6-(2-Chloro-3-(3-chloro-2-(3-methoxy-4-((7-oxo-2,6-diazaspiro[3.4]octan-2-yl)methyl)phenyl)pyridin-4-yl)phenyl)-2-methoxypyridin-3-yl)methyl)piperidin-4-yl)acetamide] yielded an IC50 [1] of 1.27 nM and an EC50 [2] of 28.7 nM.
`COc1cc(-c2nccc(-c3cccc(-c4ccc(CNCCCNC(C)=O)c(OC)n4)c3Cl)c2Cl)ccc1CNCCCNC(C)=O` [Example 358, N-(3-(((6-(3-(2-(4-(((3-Acetamidopropyl)amino)methyl)-3-methoxyphenyl)-3-chloropyridin-4-yl)-2-chlorophenyl)-2-methoxypyridin-3-yl)methyl)amino)propyl) acetamide] showed an IC50 [1] of 0.12 nM and an EC50 [2] of 64.4 nM.
With `COc1cc(-c2nccc(-c3cccc(-c4ccc(CNC5CCN(C(C)=O)CC5)c(OC)n4)c3Cl)c2Cl)ccc1CN1CC2(COC2)C1` [Example 380, 1-(4-(((6-(3-(2-(4-((2-Oxa-6-azaspiro[3.3]heptan-6-yl)methyl)-3-methoxyphenyl)-3-chloropyridin-4-yl)-2-chlorophenyl)-2-methoxypyridin-3-yl)methyl)amino)piperidin-1-yl)ethan-1-one] the IC50 [1] was 1.43 nM and the EC50 [2] was 20.5 nM.
For `COc1cc(-c2nccc(-c3cccc(-c4ccc(CNC5CCN(C(C)=O)CC5)c(OC)n4)c3Cl)c2Cl)ccc1CNC1CC(C)(C)C1` [Example 381, 1-(4-(((6-(2-Chloro-3-(3-chloro-2-(4-(((3,3-dimethylcyclobutyl)amino)methyl)-3-methoxyphenyl)pyridin-4-yl)phenyl)-2-methoxypyridin-3-yl)methyl)amino)piperidin-1-yl)ethan-1-one], the IC50 [1] was 0.184 nM and the EC50 [2] was 53.3 nM.
For `COc1cc(-c2nccc(-c3cccc(-c4ccc(CNC5CCN(C(C)=O)CC5)c(OC)n4)c3Cl)c2Cl)ccc1CNC1CCN(S(C)(=O)=O)CC1` [Example 383, 1-(4-(((6-(2-Chloro-3-(3-chloro-2-(3-methoxy-4-(((1-(methylsulfonyl)piperidin-4-yl)amino)methyl)phenyl)pyridin-4-yl)phenyl)-2-methoxypyridin-3-yl)methyl)amino)piperidin-1-yl)ethan-1-one], the IC50 [1] was 0.998 nM and the EC50 [2] was 14.4 nM.
In the case of `COc1cc(-c2nccc(-c3cccc(-c4ccc(CN5CC(C)(O)C5)c(OC)n4)c3Cl)c2Cl)ccc1CN1CC(C)(O)C1` [Example 396, 1-((6-(2-Chloro-3-(3-chloro-2-(4-((3-hydroxy-3-methylazetidin-1-yl)methyl)-3-methoxyphenyl)pyridin-4-yl)phenyl)-2-methoxypyridin-3-yl)methyl)-3-methylazetidin-3-ol], the IC50 [1] is reported as 1.38 nM and the EC50 [2] is reported as 15.3 nM.
`COCC(=O)N1CCC(NCc2ccc(-c3nccc(-c4cccc(-c5ccc(CNC6CCN(C(=O)COC)CC6)c(OC)n5)c4Cl)c3Cl)cc2OC)CC1` [Example 397, 1-(4-(((6-(2-Chloro-3-(3-chloro-2-(3-methoxy-4-(((1-(2-methoxyacetyl)piperidin-4-yl)amino)methyl)phenyl)pyridin-4-yl)phenyl)-2-methoxypyridin-3-yl)methyl)amino)piperidin-1-yl)-2-methoxyethan-1-one] gave an IC50 [1] of 0.128 nM and an EC50 [2] of 5.71 nM.
`COc1cc(-c2nccc(-c3cccc(-c4ccc(CN5CC6(CCC(=O)N6)C5)c(OC)n4)c3Cl)c2Cl)ccc1CN1CC2(CCC(=O)N2)C1` [Example 398, 2-((6-(2-Chloro-3-(3-chloro-2-(3-methoxy-4-((6-oxo-2,5-diazaspiro[3.4]octan-2-yl)methyl)phenyl)pyridin-4-yl)phenyl)-2-methoxypyridin-3-yl)methyl)-2,5-diazaspiro[3.4]octan-6-one] showed an IC50 [1] of 0.278 nM and an EC50 [2] of 8.54 nM.
Work on `COc1cc(-c2nccc(-c3cccc(-c4ccc(CNC5CCN(C(C)=O)CC5)c(OC)n4)c3C)c2Cl)ccc1CNC1CCN(C(C)=O)CC1` [Example 399, 1-(4-(((6-(3-(2-(4-(((1-acetylpiperidin-4-yl)amino)methyl)-3-methoxyphenyl)-3-chloropyridin-4-yl)-2-methylphenyl)-2-methoxypyridin-3-yl)methyl)amino)piperidin-1-yl)ethan-1-one] yielded an IC50 [1] of 0.185 nM and an EC50 [2] of 77.7 nM.
`COc1cc(-c2nccc(-c3cccc(-c4ccc(CN5CC6(CNC(=O)C6)C5)c(OC)n4)c3Cl)c2Cl)ccc1CN1CCC(NC(C)=O)CC1` [Example 400, N-(1-(4-(3-chloro-4-(2-chloro-3-(6-methoxy-5-((7-oxo-2,6-diazaspiro[3.4]-octan-2-yl)methyl)pyridin-2-yl)-phenyl)pyridin-2-yl)-2-methoxybenzyl)piperidin-4-yl)acetamide] was tested, and the IC50 [1] was 0.272 nM and the EC50 [2] was 16.4 nM.
`COc1cc(-c2nccc(-c3cccc(-c4ccc(CNC[C@H]5CNC(=O)C5)c(OC)n4)c3Cl)c2Cl)ccc1CNC[C@H]1CNC(=O)C1` [Example 405, (S)-4-((((6-(2-Chloro-3-(3-chloro-2-(3-methoxy-4-(((((S)-5-oxopyrrolidin-3-yl)methyl)amino)methyl)phenyl)pyridin-4-yl)phenyl)-2-methoxypyridin-3-yl)methyl)amino)methyl)pyrrolidin-2-one] showed an IC50 [1] of 0.237 nM and an EC50 [2] of 24 nM.
Compound `COCC(=O)N1CCC(NCc2ccc(-c3nccc(-c4cccc(-c5ccc(CNC6CCN(C(C)=O)CC6)c(OC)n5)c4Cl)c3Cl)cc2OC)CC1` [Example 413, 1-(4-((4-(4-(3-(5-(((1-Acetylpiperidin-4-yl)amino)methyl)-6-methoxypyridin-2-yl)-2-chlorophenyl)-3-chloropyridin-2-yl)-2-methoxybenzyl)amino)piperidin-1-yl)-2-methoxyethan-1-one] has an IC50 [1] of 1.45 nM and an EC50 [2] of 16.1 nM.
Compound `COc1cc(-c2nccc(-c3cccc(-c4ccc(CNC[C@@H]5CCC(=O)N5)c(OC)n4)c3Cl)c2C)ccc1CNC[C@@H]1CCC(=O)N1` [Example 414, (S)-5-((((6-(2-Chloro-3-(2-(3-methoxy-4-(((((S)-5-oxopyrrolidin-2-yl)methyl)amino)methyl)phenyl)-3-methylpyridin-4-yl)phenyl)-2-methoxypyridin-3-yl)methyl)amino)methyl)pyrrolidin-2-one] has an IC50 [1] of 1.58 nM and an EC50 [2] of 29.4 nM.
In the case of `COc1cc(-c2nccc(-c3cccc(-c4ccc(CN5CC6(CNC(=O)C6)C5)c(OC)n4)c3C)c2C)ccc1CN1CC2(CNC(=O)C2)C1` [Example 415, 2-((2-methoxy-6-(3-(2-(3-methoxy-4-((7-oxo-2,6-diazaspiro[3.4]octan-2-yl)methyl)phenyl)-3-methylpyridin-4-yl)-2-methylphenyl)pyridin-3-yl)methyl)-2,6-diazaspiro[3.4]octan-7-one], the IC50 [1] is reported as 0.25 nM and the EC50 [2] is reported as 5100 nM.
With `COc1cc(-c2nccc(-c3cccc(-c4ccc(CN5CC6(C5)CN(C(C)=O)C6)c(OC)n4)c3C)c2C)ccc1CN1CC2(C1)CN(C(C)=O)C2` [Example 416, 1-(6-((6-(3-(2-(4-((6-Acetyl-2,6-diazaspiro[3.3]heptan-2-yl)methyl)-3-methoxyphenyl)-3-methylpyridin-4-yl)-2-methylphenyl)-2-methoxypyridin-3-yl)methyl)-2,6-diazaspiro[3.3]heptan-2-yl)ethan-1-one] the IC50 [1] was 6.6 nM and the EC50 [2] was ≥ 10000 nM.
Compound `COc1cc(-c2nccc(-c3cccc(-c4ccc(CNC5CCN(C(C)=O)CC5)c(OC)n4)c3Cl)c2Cl)ccc1CNC1CCNCC1` [Example 417, 1-(4-(((6-(2-chloro-3-(3-chloro-2-(3-methoxy-4-((piperidin-4-ylamino)methyl)phenyl)pyridin-4-yl)phenyl)-2-methoxypyridin-3-yl)methyl)amino)piperidin-1-yl)ethan-1-one] has an IC50 [1] of 3.67 nM and an EC50 [2] of 58.3 nM.
With `COc1cc(-c2nccc(-c3cccc(-c4ccc(CNC5CCN(C(=O)c6ccco6)CC5)c(OC)n4)c3Cl)c2Cl)ccc1CNC1CCN(C(=O)c2ccco2)CC1` [Example 421, (4-(((6-(2-Chloro-3-(3-chloro-2-(4-(((1-(furan-2-carbonyl)piperidin-4-yl)amino)methyl)-3-methoxyphenyl)pyridin-4-yl)phenyl)-2-methoxypyridin-3-yl)methyl)amino)piperidin-1-yl)(furan-2-yl)methanone] the IC50 [1] was 1.86 nM and the EC50 [2] was 47.7 nM.
In the case of `COc1cc(-c2nccc(-c3cccc(-c4ccc(CNC5CCN(C(=O)c6ccccc6)CC5)c(OC)n4)c3Cl)c2Cl)ccc1CNC1CCN(C(=O)c2ccccc2)CC1` [Example 422, (4-(((6-(3-(2-(4-(((1-Benzoylpiperidin-4-yl)amino)methyl)-3-methoxyphenyl)-3-chloropyridin-4-yl)-2-chlorophenyl)-2-methoxypyridin-3-yl)methyl)amino)piperidin-1-yl)(phenyl)methanone], the IC50 [1] is reported as 0.9 nM and the EC50 [2] is reported as 75.5 nM.
`COc1cc(-c2nccc(-c3cccc(-c4ccc(CNC5CCN(c6ccccc6)CC5)c(OC)n4)c3Cl)c2Cl)ccc1CNC1CCN(c2ccccc2)CC1` [Example 423, N-((6-(2-Chloro-3-(3-chloro-2-(3-methoxy-4-(((1-phenylpiperidin-4-yl)amino)methyl)phenyl)pyridin-4-yl)phenyl)-2-methoxypyridin-3-yl)methyl)-1-phenylpiperidin-4-amine] showed an IC50 [1] of 7.78 nM and an EC50 [2] of 354 nM.
Work on `COc1cc(-c2nccc(-c3cccc(-c4ccc(CNC5CCN(c6ccncc6)CC5)c(OC)n4)c3Cl)c2Cl)ccc1CNC1CCN(c2ccncc2)CC1` [Example 424, N-((6-(2-Chloro-3-(3-chloro-2-(3-methoxy-4-(((1-(pyridin-4-yl)piperidin-4-yl)amino)methyl)phenyl)pyridin-4-yl)phenyl)-2-methoxypyridin-3-yl)methyl)-1-(pyridin-4-yl)piperidin-4-amine] yielded an IC50 [1] of 3.59 nM and an EC50 [2] of 86.6 nM.
Compound `COc1cc(-c2nccc(-c3cccc(-c4ccc(CNC5CCOCC5)c(OC)n4)c3C)c2C)ccc1CNC1CCOCC1` [Example 425, N-(2-Methoxy-4-(4-(3-(6-methoxy-5-(((tetrahydro-2H-pyran-4-yl)amino)methyl)pyridin-2-yl)-2-methylphenyl)-3-methylpyridin-2-yl)benzyl)tetrahydro-2H-pyran-4-amine] has an IC50 [1] of 7.08 nM and an EC50 [2] of 841 nM.
